By pIC50 is commonly meant −log10 of the IC50, conventionally taken in molar units.

A short description of assay [1]: Antagonist activity at RORgammat LBD (unknown origin)/NCoR2 (unknown origin) interaction. More on the design: species or system Homo sapiens.
Assay [2] concerns the target T1, Nuclear receptor ROR-gamma (Homo sapiens, UniProt P51449).
T1 sequence (P51449 whole entry): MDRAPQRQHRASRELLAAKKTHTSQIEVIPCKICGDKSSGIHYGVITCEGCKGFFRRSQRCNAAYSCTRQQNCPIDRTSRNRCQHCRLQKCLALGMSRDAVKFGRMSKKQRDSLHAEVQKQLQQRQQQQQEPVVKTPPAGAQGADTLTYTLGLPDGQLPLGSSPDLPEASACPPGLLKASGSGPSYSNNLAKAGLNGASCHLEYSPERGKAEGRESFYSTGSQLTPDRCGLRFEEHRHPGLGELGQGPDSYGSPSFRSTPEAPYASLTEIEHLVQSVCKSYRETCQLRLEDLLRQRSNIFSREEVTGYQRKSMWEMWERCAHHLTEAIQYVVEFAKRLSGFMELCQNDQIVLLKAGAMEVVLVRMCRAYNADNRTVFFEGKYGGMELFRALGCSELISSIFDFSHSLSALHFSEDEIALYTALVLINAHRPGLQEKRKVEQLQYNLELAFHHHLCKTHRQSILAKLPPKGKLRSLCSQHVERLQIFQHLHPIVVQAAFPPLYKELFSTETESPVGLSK
Kind of assay: Antagonist activity at RORgammat LBD (unknown origin) LBD.

Molecules are shown by their SMILES. pIC50: −log10 of the molar value.

Take `C[C@H]1O[C@@H](O[C@H]2[C@@H](O)C[C@H](O[C@H]3[C@@H](O)C[C@H](O[C@H]4CC[C@@]5(C)[C@H](CC[C@@H]6[C@@H]5C[C@@H](O)[C@]5(C)[C@@H](C7=CC(=O)OC7)CC[C@]65O)C4)O[C@@H]3C)O[C@@H]2C)C[C@H](O)[C@@H]1O` [DIGOXIN]: the pIC50 is 5.41 in assay [1] and 5.74 in assay [2].

Values taken from ChEMBL document CHEMBL5331090, “Modes of action insights from the crystallographic structures of retinoic acid receptor-related orphan receptor-γt (RORγt)” (Eur J Med Chem, 2023).
